The target in one data set is MDM2 (Homo sapiens (Human), UniProt Q00987). Put plainly: In vitro MDM2 HTRF assay (inhibition of p53-MDM2 interaction). The format is binding. Conditions: GST-MDM2 / biotinylated p53 peptide. Background: In TR-FRET formats the signal depends on donor and acceptor labels being close together.
Data set [1] deals with BCL-2-dependent acute lymphoblastic leukemia (ALL) cell line RS4;11 overexpressing Bcl-2 G101V. The data set is described as follows: cells. The data set is classed as cell-based. To be noted: Homo sapiens, RS4-11; about 72 hours, ATPlite luminescence; read-out: RS4;11-G101V IC50. The procedure, abridged: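 About 1×10^4 cells per well treated with compound for about 72 hours in medium with 5% FBS or 10% normal human serum. Viability from ATP-based luminescence (ATPlite) after lysis; IC50 derived from dose range.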

The nature of a further data set: Mice PK study. The format is in vivo. To be noted: 25 mg/kg; Oral, 25 mpk, CD-1 mouse, plasma. On the procedure: Biological Example 4: Mice PK Study
The pharmacokinetics of compounds were evaluated in CD-1 mouse via Intravenous and Oral Administration. The IV dose was administered as a slow bolus in the Jugular vein, and oral doses were administered by gavage. The formulation for IV dosing was 5% DMSO in 20% HPBCD in water, and the PO formulation was 2.5% DMSO, 10% EtOH, 20% Cremphor EL, 67.5% D5W. The PK time point for the IV arm was 5, 15, 30 min, 1, 2, 4, 6, 8, 12, 24 hours post dose, and for PO arm was 15, 30 min, 1, 2, 4, 6, 8, 12, 24 hours post dose. Approximately 0.03 mL blood was collected at each time point. Blood of each sample was transferred into plastic micro centrifuge tubes containing EDTA-K2 and collect plasma within 15 min by centrifugation at 4000 g for 5 minutes in a 4° C. centrifuge. Plasma samples were stored in polypropylene tubes. The samples were stored in a freezer at −75±15° C. prior to analysis. Concentrations of compounds in the plasma samples were analyzed using a LC-MS/MS method. […] The following pharmacokinetic parameters were calculated, whenever possible from the plasma concentration versus time data: IV administration: C0, CL, Vd, T1/2, AUCinf, AUClast, MRT, Number of Points for Regression; PO administration: Cmax, Tmax, T1/2, AUCinf, AUClast, F %, Number of Points for Regression. […]

One compound from patent US20250073340A1, “SPIROCYCLIC MDM2 MODULATOR AND USES THEREOF” (Newave Pharmaceutical Inc., priority 2021, published 2025) can be followed below.

Sequence of MDM2 (Q00987 whole entry): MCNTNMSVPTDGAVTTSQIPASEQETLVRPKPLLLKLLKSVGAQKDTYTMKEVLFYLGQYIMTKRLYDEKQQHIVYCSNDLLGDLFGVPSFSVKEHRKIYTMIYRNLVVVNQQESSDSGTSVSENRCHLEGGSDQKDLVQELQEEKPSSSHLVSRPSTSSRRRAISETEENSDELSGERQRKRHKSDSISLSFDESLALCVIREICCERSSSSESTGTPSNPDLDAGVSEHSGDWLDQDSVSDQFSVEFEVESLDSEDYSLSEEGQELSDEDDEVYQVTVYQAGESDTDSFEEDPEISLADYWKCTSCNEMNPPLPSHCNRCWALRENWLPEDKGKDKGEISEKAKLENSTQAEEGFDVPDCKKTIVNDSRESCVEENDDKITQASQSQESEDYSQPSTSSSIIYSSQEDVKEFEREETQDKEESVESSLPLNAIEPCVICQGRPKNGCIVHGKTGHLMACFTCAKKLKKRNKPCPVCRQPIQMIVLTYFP

In general, AUC refers to concentration integrated over time. High values mean high exposure, low ones low exposure. As to `COc1cc(C(=O)N2CCC3(CC2)C[C@@H]3C#Cc2cccc3c2CN([C@H]2CCC(=O)NC2=O)C3=O)ccc1NC(=O)[C@@H]1N[C@@H](CC(C)(C)C)[C@@]2(CNc3cc(Cl)ccc32)[C@H]1c1cccc(Cl)c1F` [Example 58, (2′S,3S,4′S,5′R)-6-chloro-4′-(3-chloro-2-fluorophenyl)-2′-(2,2-dimethylpropyl)-N-{4-[(1S)-1-(2-{2-[(3S)-2,6-dioxopiperidin-3-yl]-1-oxo-3H-isoindol-4-yl}ethynyl)-6-azaspiro[2.5]octane-6-carbonyl]-2-methoxyphenyl}-1,2-dihydrospiro[indole-3,3′-pyrrolidine]-5′-carboxamide], the IC50 on MDM2 was determined as 3.38 nM; in data set [1], 7.71 nM. The compound also returned an exposure (AUC) in the data set “Mice PK study” of 49400 ng·h/mL.
